Results on 6 compounds are retold here after patent US4260617A, “17-Cyclopropylmethyl-14-hydroxy-3-methoxymorphinan-6-one and method of treating pain with it” (SISA, Incorporated, priority 1979, dated 1981).

The structures appear in SMILES notation.

The conditions of experiment [1]: in words, prior art; cited from earlier work.
Experiment [2] has as its system acetic acid induced writhing in mice. As to the kind of experiment: Acetic acid mouse writhing test (analgesic effect). The note with it: for ED50: Mus musculus, sc, subcutaneous, mice, acetic acid i.p. 15 minutes post drug, writhes in 20 minute interval; for ED50/AD50: ratio of mouse writhing ED50 to rat tail flick AD50. The format is in vivo, male CD-1 mice. Here is the method:
The analgesic effects of test compounds were determined in mice by use of the acetic acid writhing test described by B. J. R. Whittle, Brit. J. Pharmacol., 22: 296 (1964). In this test at least three groups of five male CD-1 mice each were given subcutaneous doses of the test drug dissolved in either distilled water or distilled water acidified with HCl depending on the solubility of the compound. In all cases, 0.4 milliliter of a 0.75% V/V acetic acid in distilled water solution was administered intraperitoneally 15 minutes post drug. The number of writhes in a 20 minute interval were determined and compared with the number of writhes in control groups which had received only acetic acid.
Percent inhibition of writhing was calculated as: [formula]
The ED50 dose, i.e., the dose required to reduce the number of writhes by 50%, was determined graphically from a plot of % inhibition as a probit versus log dose. Confidence limits of 95% were calculated on the basis of those results falling in the range 16-84% inhibition. See Litchfield, J. T. and Wilcoxon, F., J. Pharmacol. Exp. Ther., 96, 99-113, (1949).

The test system of experiment [3] is morphine effect in rat tail flick. As to the kind of experiment: Narcotic antagonist activity (modified rat tail flick test, antagonism of morphine). The note with it: for ED50: Rattus norvegicus, ip, 20 min, test drug intraperitoneally, rats, ED80 dose of morphine s.c. ten minutes later, retested 20 minutes after morphine, read-out: AD50 (the source's name). The class given is in vivo, male albino Wistar rats. As for the experimental part: The narcotic anatagonist effects of test compounds were determined by a modification of the rat tail flick procedure of Harris and Pierson (J. Pharmacol. Exp. Ther. 143: 141 [1964]).
Male albino Wistar rats (100-120 g) were used for this study. A rat's tail is so placed so as to cover a photocell. Heat is applied by a lamp in a reflector with a timer being connected to the lamp and photocell so that the timer goes on when the light is turned on and is turned off when the photocell is uncovered. A rheostat, incorporated into a heating lamp, is used to adjust the intensity of the light fallng on the tail of the rat such that the rat's control reaction time is from two to four seconds. Animals with a control reaction time outside this range are rejected. The rheostat adjustment is made only if a significant proportion (more than 1 out of every 10 rats) of the reaction times are outside the range of 1.8 to 5.8 seconds. Groups of five rats were used each time, and two control times were determined at least 30 minutes apart. The test drug was given intraperitoneally and this was followed ten minutes later by an ED80 dose of morphine subcutaneously. The animals were retested at 20 minutes after the morphine injection. Control animals were given morphine only.
The data were calculated as follows: [formula]
The data were plotted on log-probit paper and AD50 values, i.e., the dose required to inhibit the morphine effect by 50% within 95% confidence limits, were determined by the method of Litchfield and Wilcoxon.
A general note: Hot-plate and tail-flick tests time the reaction to a heat stimulus.

As for `Oc1ccc2c(c1)C13CCCCC1(O)C(C2)N(CC1CC1)CC3` (stereo not shown) [A], in experiment [1], the “analgesic / narcotic antagonist activity” value was “essentially a narcotic antagonist”.
With `Cl.O=C1CC[C@@]2(O)[C@H]3Cc4ccc(O)cc4[C@@]2(CCN3CC2CC2)C1` [179-A-20, 17-cyclopropylmethyl-3,14-dihydroxymorphinan-6-one hydrochloride], in experiment [2], the ED50 stood at 2.2 mg/kg and the ED50/AD50 was determined as 26.83. In addition, in experiment [3] (179-A-20 versus 179-A-19), the “more potent in terms of narcotic antagonist activity, by a factor” value is on record as “about 6”. The ED50 in experiment [3] is 0.082 mg/kg.
With `COc1ccc2c(c1)[C@]13CCN(CC4CC4)[C@H](C2)[C@]1(O)CCC(=O)C3.Cl` [179-A-19, 17-cyclopropylmethyl-14-hydroxy-3-methoxymorphinan-6-one hydrochloride], the “more potent as an analgesic, by a factor” value in experiment [2] (179-A-19 versus 179-A-20) is “greater than 7”. The ED50 in experiment [2] is 0.3 mg/kg; in experiment [3], 0.5 mg/kg. Further, in experiment [2], the ED50/AD50 came to 0.6.
With `Oc1ccc2c(c1)C13CCCCC1(O)C(C2)N(CC1CCC1)CC3` (stereo not shown) [B], in experiment [1], the “analgesic / narcotic antagonist activity” value is “both analgesic and narcotic antagonist activity”.
`C[C@H]1[C@H]2Cc3ccc(O)cc3[C@]1(C)CCN2CC1CC1` [cyclazocine]: the “analgesic / narcotic antagonist activity” value in experiment [1] is “mixed analgesic/narcotic antagonist activity”.
Consider `O=C1CCC2(O)C3Cc4ccc(O)cc4C2(CCN3CC2CC2)C1` (stereo not shown), for which, in experiment [1], the duration of action entry is “very long acting” and the “potency relative to A, cyclazocine or naloxone” value is recorded as “more potent than A (above), cyclazocine or naloxone”.
